Where a name gives a salt, the structure may show the parent alone. Read-outs that look alike come from different tables or passages of the source.
Legend:
murine leukaemia P388 = test: In vitro cytotoxicity, Microculture Tetrazolium Assay, P388; type: cell-based; details: Mus musculus
Experimental: (§1) A/In Vitro Activity: Cytotoxicity
(§2) Four cell lines were used:
(§3) The cells are distributed onto microplates and exposed to the cytotoxic compounds. The cells are then incubated for 2 days (P388) or 4 days (LLC, KB-A1, KB-3-1).

[1] = system: murine lung carcinoma, Lewis Lung Carcinoma (LLC); test: In vitro cytotoxicity, Microculture Tetrazolium Assay, LLC; type: cell-based; details: Mus musculus, 96 h
Experimental: as §1, §2
1 murine lung carcinoma, Lewis Lung Carcinoma (LLC),
as §3

[2] = system: human epidermoid carcinoma, KB-3-1; test: In vitro cytotoxicity, Microculture Tetrazolium Assay, KB-3-1; type: cell-based
Experimental: as §1, §2, §3

[3] = system: KB-A1 (multi-drug resistant line induced by adriamycin); test: In vitro cytotoxicity, Microculture Tetrazolium Assay, KB-A1 (adriamycin-resistant); type: cell-based; details: Homo sapiens
Experimental: as §1, §2
the corresponding resistant line, KB-A1, the multi-drug resistance of which was induced by adriamycin (ADR).
as §3

[4] = system: human lung carcinoma NCI-H460; test: Anti-tumour activity in an orthotopic model of human lung carcinoma NCI-H460 implanted intrapleurally; type: in vivo, human (tumour line, in female Nude Balb/C mice); details: for toxicity of the dose: dihydrochloride
Experimental: 2/Anti-tumour Activity of the Compounds in an Orthotopic Model of Human Lung Carcinoma NCI-H460 Implanted Intrapleurally
The line NCI-H460, which originates from a human lung carcinoma of "not small cell" type, was supplied by the American Type Culture Collection (Frederick, USA). The cells are cultured in vitro in complete RPMI 1640 medium in Falcon flasks. On the day of the implantation, the cells are separated using trypsin, centrifuged and suspended in complete culture medium. The cells are then implanted in the pleural cavity of female Nude Balb/C mice (10^6 cells per mouse). The products are administered i.v. to groups of 6 animals on days 7 and 14 at the doses indicated. The anti-tumour activity is expressed in % T/C as defined above.
Table 3 lists the results obtained with the compound of Example 3 of the present Application (especially representative of the invention) and with the closest compound of the prior art as reference product.

leukaemia P388 = test: Anti-tumour activity on leukaemia P388 (i.p.) in female BDF1 mice; type: in vivo, murine (female BDF1 mice)
Experimental: 1/Anti-tumour Activity of the Compounds on Leukaemia P388
The line P388 (murine leukaemia) was supplied by the National Cancer Institute (Frederick, USA). The tumour cells (10^6 cells) were injected on day 0 into the peritoneal cavity of female BDF1 mice (Iffa-Credo, France) weighing from 18 to 20 g (groups of 6 or 7 animals).
The products were administered intravenously, at the doses indicated, on day 1 or on days 1, 5 and 9.
The anti-tumour activity is expressed in % T/C: [formula]
The number of animals surviving 60 days (long-term survival) is indicated.
By way of example, Table 2 gives the results obtained with the compound of Example 32 which is especially representative of the invention.

[5] = 48 h, P388, 2 days incubation, read-out: IC50
[6] = LLC, 4 days incubation, read-out: IC50
[7] = 96 h, KB-3-1, 4 days incubation, read-out: IC50
[8] = 96 h, KB-A1, 4 days incubation, read-out: IC50
[9] = i.v. on days 7 and 14, 56.5 mg/kg
[10] = i.v. on days 7 and 14, 80 mg/kg
[11] = i.v. on days 7 and 14, 113 mg/kg

SMILES: COc1cccc2c1C(=O)c1c(O)c3c(c(O)c1C2=O)C[C@@](O)(C(=O)CO)C[C@@H]3O[C@H]1C[C@H](N)[C@H](O)[C@H](C)O1 [ADR, adriamycin, reference compound]
- IC50 (murine leukaemia P388; P388, 48 h): 18.1 nM
- IC50 [1]: 19.3 nM
- IC50 ([2]; KB 3-1, 96 h): 17.3 nM
- IC50 ([3]; KB-A1, 96 h): 6690 nM

SMILES: CC(=O)Oc1ccc2c(c1)c1cc3c(C(=O)NCCN(C)C)nccc3c(C)c1n2C [Example 2, 1-[(2-Dimethylaminoethyl)aminocarbonyl]-5,6-dimethyl-9-acetoxy-6H-pyrido-[4,3-b]carbazole]
- IC50 (murine leukaemia P388; [5]): 5.8 nM
- IC50 [1, 6]: 13.5 nM
- IC50 [2, 7]: 36.1 nM
- IC50 [3, 8]: 758 nM

SMILES: Cc1c2ccnc(C(=O)NCCN(C)C)c2cc2c3cc(OC(=O)CCCC(=O)O)ccc3n(C)c12.Cl.Cl [Example 3, 1-[(2-Dimethylaminoethyl)aminocarbonyl]-5,6-dimethyl-9-(4-carboxybutanoyloxy)-6H-pyrido-[4,3-b]carbazole dihydrochloride]
- IC50 (murine leukaemia P388; [5]): 7.1 nM
- IC50 [1, 6]: 43.2 nM
- IC50 [2, 7]: 74.2 nM
- IC50 [3, 8]: 923 nM
- increase in survival of the animals ([4]; administered twice at 160 mg/kg i.v.): 81%
- tolerability ([4]; even at a strong dose, i.v.): very well tolerated
- therapeutic index ([4]; i.v.): excellent
- anti-tumour activity ([4]; i.v. on days 7 and 14): active
- T/C % [4, 9]: 133%
- T/C % [4, 10]: 147%
- T/C % [4, 11]: 174%
- T/C % ([4]; i.v. on days 7 and 14, 160 mg/kg): 181%

SMILES: Cc1c2ccnc(C(=O)NCCN(C)C)c2cc2c3cc(OC(=O)CCCCC(=O)O)ccc3n(C)c12 [Example 32, 1-[(2-Dimethylaminoethyl)aminocarbonyl]-5,6-dimethyl-9-(5-carboxypentanoyloxy)-6H-pyrido[4,3-b]carbazole]
- IC50 (murine leukaemia P388; [5]): 5.1 nM
- IC50 [1, 6]: 3.5 nM
- IC50 [2, 7]: 40.6 nM
- IC50 [3, 8]: 758 nM
- tolerability (leukaemia P388; even at a very high dose, i.v.): well tolerated
- weight loss and premature death (leukaemia P388; even at a very high dose, i.v.): neither significant weight loss nor premature death
- general toxicity (leukaemia P388; i.v.): very low general toxicity
- therapeutic index (leukaemia P388; i.v.): excellent therapeutic index
- T/C % (leukaemia P388; i.v. on D1, 20 mg/kg): 125%
- T/C % (leukaemia P388; i.v. on D1, 40 mg/kg): 154%
- T/C % (leukaemia P388; i.v. on D1, 80 mg/kg): 186%
- T/C % (leukaemia P388; i.v. on D1, 160 mg/kg): 233%
- T/C % (leukaemia P388; i.v. on D1, 240 mg/kg): > 600%
- number of animals surviving 60 days (cured) (leukaemia P388; i.v. on D1, 240 mg/kg): 4/7
- T/C % (leukaemia P388; i.v. on D1, 320 mg/kg): > 600%
- number of animals surviving 60 days (cured) (leukaemia P388; i.v. on D1, 320 mg/kg): 6/7
- T/C % (leukaemia P388; i.v. on D1, 5 and 9, 10 mg/kg): 137%
- T/C % (leukaemia P388; i.v. on D1, 5 and 9, 20 mg/kg): 171%
- T/C % (leukaemia P388; i.v. on D1, 5 and 9, 40 mg/kg): 236%
- T/C % (leukaemia P388; i.v. on D1, 5 and 9, 80 mg/kg): > 600%
- number of animals surviving 60 days (cured) (leukaemia P388; i.v. on D1, 5 and 9, 80 mg/kg): 6/7
- T/C % (leukaemia P388; i.v. on D1, 5 and 9, 160 mg/kg): > 600%
- number of animals surviving 60 days (cured) (leukaemia P388; i.v. on D1, 5 and 9, 160 mg/kg): 6/7

SMILES: Cc1c2ccnc(C(=O)NCCN(C)C)c2cc2c3cc(O)ccc3n(C)c12 [Reference product, 1[(2dimethylaminoethyl)aminocarbonyl5,6-dimethyl-9-hydroxy-6H-pyrido-[4,3]carbazoledihydrochloride, reference compound]
- mouse dead during the treatments ([4]; 113 mg/kg i.v., days 7 and 14): 1 mouse
- toxicity of the dose ([4]; 113 mg/kg i.v., days 7 and 14): toxic dose
- toxicity of the dose ([4]; 113 mg/kg i.v., days 7 and 14, listed as reference product): toxic
- T/C % ([4]; i.v. on days 7 and 14, 40 mg/kg): 126%
- T/C % [4, 9]: 145%
- T/C % [4, 10]: 156%
- T/C % [4, 11]: 186%
